Experimental data published in patent publication US20220289728A1, “MODULATORS OF TREX1” (Constellation Pharmaceuticals, Inc., priority 2019, published 2022).

Assays:
full length human TREX1 = biological target: T1, full length human TREX1 (Homo sapiens, UniProt Q9NSU2); test: TREX1 Biochemical Assay (fluorescence, dsDNA substrate degradation); details: 150 pM TREX1, 60 nM dsDNA substrate, 25 minutes at room temperature
T1 construct: N-terminally His-Tev tagged full length human TREX1; His-TEV (His tag with TEV site) (N); made in house; host or cells: E. coli
T1 sequence (Q9NSU2 1-314): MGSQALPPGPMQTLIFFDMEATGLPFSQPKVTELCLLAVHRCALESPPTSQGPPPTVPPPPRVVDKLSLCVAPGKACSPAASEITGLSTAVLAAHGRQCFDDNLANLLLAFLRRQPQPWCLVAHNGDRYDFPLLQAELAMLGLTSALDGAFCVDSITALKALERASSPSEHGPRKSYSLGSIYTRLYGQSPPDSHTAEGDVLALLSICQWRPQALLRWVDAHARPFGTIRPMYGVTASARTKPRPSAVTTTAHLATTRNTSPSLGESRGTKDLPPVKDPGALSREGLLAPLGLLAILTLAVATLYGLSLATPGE
Method in brief: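 N-terminally His-Tev-tagged TREX1 was expressed in E. coli; 150 pM enzyme was run with 60 nM TEX615/quencher-labelled dsDNA at pH 7.4 in 1.0% DMSO for 25 min at room temperature, then quenched with EDTA. Fluorescence at 615 nm (570 nm excitation) was normalised to pre-quenched and no-inhibitor controls, and IC50 came from four-parameter fits.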

[1] = biological target: T2, human TREX2 (residues M44-A279) (Homo sapiens, UniProt Q9BQ50); test: TREX2 Biochemical Assay (fluorescence, dsDNA substrate degradation); details: 2.5 nM TREX2, 60 nM dsDNA substrate, 25 minutes at room temperature
T2 construct: human TREX2 (residues M44-A279, expressed in E. coli); His-TEV (His tag with TEV site) (N); made in house; host or cells: E. coli
T2 sequence (Q9BQ50 44-279 isoform Q9BQ50-1): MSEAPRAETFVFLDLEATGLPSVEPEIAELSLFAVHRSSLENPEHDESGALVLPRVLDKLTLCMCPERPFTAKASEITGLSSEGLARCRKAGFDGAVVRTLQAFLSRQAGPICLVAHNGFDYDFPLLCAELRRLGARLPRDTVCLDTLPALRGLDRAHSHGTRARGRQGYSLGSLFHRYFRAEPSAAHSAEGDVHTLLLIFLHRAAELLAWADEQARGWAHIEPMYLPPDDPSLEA
Method in brief: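 Final conditions: 2.5 nM His-Tev-tagged TREX2 (E. coli-expressed), 60 nM fluorophore/quencher-labelled dsDNA, 50 mM Tris pH 7.4, 150 mM NaCl, 100 mM MgCl2, 1% DMSO; 10-point compound dose-response. Incubated 25 min at room temperature, then EDTA-quenched; fluorescence read at ex 570/em 615 nm. IC50 from four-parameter fit against pre-quenched and no-inhibitor controls.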

HCT116 dual cells = test: HCT116 Cell Assay (Lucia luciferase reporter of Type I interferon induction); type: cell-based, human; details: pBR322/BstNI DNA transfection, Lucia luciferase at 48 h, relative to 10 uM compound 39
Method in brief: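 Cells were pretreated with compound for 4 h (≤0.1% DMSO), then transfected with pBR322/BstNI DNA (1.25 ug/mL; 100 ng/well) using Lipofectamine LTX. Secreted Lucia luciferase in the medium was read after 48 h at 37 °C. EC50 came from four-parameter fits normalised to no-inhibitor and 10 uM reference-inhibitor controls.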

[2] = Homo sapiens, HCT-116, 4 h pre-treatment

Compound | IC50 (full length human TREX1) | IC50 [1] | EC50 (HCT116 dual cells; [2]) | EC50 (HCT116 dual cells; 4 h pre-treatment)
CN(C)C(=O)c1ccc(C(c2ccccc2)N(C)c2nc(C(=O)Nc3cnoc3)c(O)c(=O)n2C)c(Cl)c1 (single isomer, unassigned) [Example 93] | < 100 nM | 1000 to 10000 nM | 1000 to 10000 nM | –
Cc1cccc(Cl)c1C(c1ccccn1)N(C)c1nc(C(=O)Nc2cnoc2)c(O)c(=O)n1C (single isomer, unassigned) [Example 62] | < 100 nM | < 1000 nM | < 1000 nM | –
Cc1cccnc1C(c1ccccc1)N(C)c1nc(C(=O)Nc2cnoc2)c(O)c(=O)n1C (single isomer, unassigned) [Example 59] | < 100 nM | < 1000 nM | – | < 1000 nM
2-(dibenzylamino)-5-ethoxy-N-(isoxazol-4-yl)-1-methyl-6-oxo-1,6-dihydropyrimidine-4-carboxamide [Example 1] | < 100 nM | < 1000 nM | – | 1000 to 10000 nM
